Laboratory results reported in US10093713B2, “GIP-GLP-1 dual agonist compounds and methods” (priority 2013, dated 2018).
Where two headings read alike, the source gives them in different places. *1 amine or outer side, *2 acyl side, *3 side chain or, on linkers, in order; H or OH if unused. Where a SMILES comes first, the peptide text is derived from it. Side-chain parts run from the residue outwards. [ ]: non-standard residue; d: D form. The star is where a group is joined. C18 diacid = O=C(O)CCCCCCCCCCCCCCCCC(=O)*; γGlu = O=C(O)[C@H](CCC(=O)[*:2])N[*:1]; AEEA = NCCOCCOCC(=O)O; Aib = CC(C)(N)C(=O)O

Tests used:
human GIP R = molecular target: T1, human GIP R (Homo sapiens, UniProt P48546); experiment: Human GIP receptor (GIP R) activity assay, cAMP induction (AlphaScreen) in HEK293 cells; type: cell-based
T1 construct: expressed in transfected cells
T1 sequence (P48546 22-466): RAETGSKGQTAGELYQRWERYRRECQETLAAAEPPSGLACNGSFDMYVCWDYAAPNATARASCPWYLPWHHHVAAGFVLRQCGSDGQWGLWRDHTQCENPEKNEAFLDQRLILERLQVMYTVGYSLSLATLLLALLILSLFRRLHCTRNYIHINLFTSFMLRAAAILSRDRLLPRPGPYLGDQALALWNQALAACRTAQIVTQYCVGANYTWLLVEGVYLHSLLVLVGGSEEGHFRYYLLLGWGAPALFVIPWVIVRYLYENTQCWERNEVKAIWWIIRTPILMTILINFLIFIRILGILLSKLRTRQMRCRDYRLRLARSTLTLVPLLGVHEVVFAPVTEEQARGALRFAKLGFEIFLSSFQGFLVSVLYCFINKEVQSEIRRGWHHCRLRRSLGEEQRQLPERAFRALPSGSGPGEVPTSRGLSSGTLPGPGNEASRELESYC
Procedure, shortened: (§1)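 Stable HEK293 clones expressing human GIP R or GLP-1 R, seeded 1 day before; cells washed in Tyrode's buffer (10 mM HEPES, pH 7.4), stimulated, then lysed. cAMP measured by AlphaScreen bead competition (1 h, room temperature, dark). EC50 = concentration giving half-maximal cAMP elevation, from curves of absolute cAMP (nM) vs log concentration.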

human GLP-1 R = molecular target: T2, human GLP-1 R (Homo sapiens, UniProt P43220); experiment: Human GLP-1 receptor (GLP-1 R) activity assay, cAMP induction (AlphaScreen) in HEK293 cells; type: cell-based
T2 construct: expressed in transfected cells
T2 sequence (P43220 24-463): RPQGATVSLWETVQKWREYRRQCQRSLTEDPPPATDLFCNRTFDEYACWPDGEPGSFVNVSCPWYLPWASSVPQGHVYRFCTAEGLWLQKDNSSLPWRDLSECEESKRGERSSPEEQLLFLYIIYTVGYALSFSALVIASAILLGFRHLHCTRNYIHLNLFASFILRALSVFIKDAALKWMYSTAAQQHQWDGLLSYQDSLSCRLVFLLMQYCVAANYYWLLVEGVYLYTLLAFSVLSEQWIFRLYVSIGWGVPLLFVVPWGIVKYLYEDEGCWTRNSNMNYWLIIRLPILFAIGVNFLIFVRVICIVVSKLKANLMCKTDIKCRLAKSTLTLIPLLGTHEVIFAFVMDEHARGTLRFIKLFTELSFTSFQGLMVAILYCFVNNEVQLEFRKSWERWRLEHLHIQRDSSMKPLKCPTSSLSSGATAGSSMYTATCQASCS
Procedure, shortened: as §1

[1] = Table 2a, secondary assay study, read-out: hGIP-R cAMP EC50 average value
[2] = Table 2a, secondary assay study, read-out: hGLP1-R cAMP EC50 average value
[3] = Table 2, HEK293 cells expressing human GIP R, read-out: hGIP-R cAMP EC50 average value
[4] = Table 3, most comprehensive data, read-out: hGIP-R cAMP EC50 average value
[5] = Table 2, HEK293 cells expressing human GLP-1 R, read-out: hGLP1-R cAMP EC50 average value

Row | Compound | EC50 (human GIP R; [1]) [pM] | EC50 (human GLP-1 R; [2]) [pM] | EC50 (human GIP R; [3]) [pM] | EC50 (human GIP R; [4]) [pM] | EC50 (human GLP-1 R; [5]) [pM] | other results
1 | CC[C@H](C)[C@H](NC(=O)[C@H](CO)NC(=O)[C@H](Cc1ccc(O)cc1)NC(=O)[C@H](CC(=O)O)NC(=O)[C@H](CO)NC(=O)[C@@H](NC(=O)[C@H](Cc1ccccc1)NC(=O)[C@@H](NC(=O)CNC(=O)[C@H](CCC(=O)O)NC(=O)C(C)(C)NC(=O)[C@@H](N)Cc1ccc(O)cc1)[C@@H](C)O)[C@@H](C)O)C(=O)N[C@@H](Cc1ccc(O)cc1)C(=O)N[C@@H](CC(C)C)C(=O)N[C@@H](CCC(=O)O)C(=O)N[C@@H](CCCCN)C(=O)N[C@@H](CCCCNC(=O)COCCOCCNC(=O)COCCOCCNC(=O)CC[C@H](NC(=O)CCCCCCCCCCCCCCCCC(=O)O)C(=O)O)C(=O)N[C@@H](C)C(=O)N[C@@H](CCC(N)=O)C(=O)N[C@@H](CCCNC(=N)N)C(=O)N[C@@H](C)C(=O)N[C@@H](Cc1ccccc1)C(=O)N[C@H](C(=O)N[C@@H](CCC(=O)O)C(=O)N[C@@H](Cc1c[nH]c2ccccc12)C(=O)N[C@@H](CC(C)C)C(=O)N[C@@H](CC(C)C)C(=O)N[C@@H](CCCNC(=N)N)C(=O)N[C@@H](C)C(N)=O)C(C)C [Compound 19] (H-Y[Aib]EGTFTSDYSIYLEKK([AEEA-AEEA-γGlu-C18 diacid])AQRAFVEWLLRA-NH2) | 14 | 22 |  |  |  | 
2 | CC[C@H](C)[C@H](NC(=O)[C@H](CO)NC(=O)[C@H](CC(C)C)NC(=O)[C@H](CC(=O)O)NC(=O)[C@H](CO)NC(=O)[C@@H](NC(=O)[C@H](Cc1ccccc1)NC(=O)[C@@H](NC(=O)CNC(=O)[C@H](CCC(=O)O)NC(=O)C(C)(C)NC(=O)[C@@H](N)Cc1ccc(O)cc1)[C@@H](C)O)[C@@H](C)O)C(=O)N[C@@H](C)C(=O)N[C@@H](CC(C)C)C(=O)N[C@@H](CC(=O)O)C(=O)N[C@@H](CCCCN)C(=O)N[C@@H](CCCCNC(=O)COCCOCCNC(=O)COCCOCCNC(=O)CC[C@H](NC(=O)CCCCCCCCCCCCCCCCC(=O)O)C(=O)O)C(=O)N[C@@H](C)C(=O)N[C@@H](CCC(N)=O)C(=O)N[C@@H](CCCNC(=N)N)C(=O)N[C@@H](C)C(=O)N[C@@H](Cc1ccccc1)C(=O)N[C@H](C(=O)N[C@@H](CC(N)=O)C(=O)N[C@@H](Cc1c[nH]c2ccccc12)C(=O)N[C@@H](CC(C)C)C(=O)N[C@H](C(=O)N[C@@H](C)C(=O)NC(C)(C)C(=O)N[C@@H](CCCCN)C(N)=O)C(C)C)C(C)C [Compound 20] |  |  |  |  |  | EC50 (human GIP R; hGIP-R cAMP EC50 average value, Table 2, HEK293 cells expressing human GIP R): 9.7 pM; EC50 (human GLP-1 R): 11 pM
3 | CC[C@H](C)[C@H](NC(=O)[C@H](CO)NC(=O)[C@H](CC(C)C)NC(=O)[C@H](CC(=O)O)NC(=O)[C@H](CO)NC(=O)[C@@H](NC(=O)[C@H](Cc1ccccc1)NC(=O)[C@@H](NC(=O)CNC(=O)[C@H](CCC(=O)O)NC(=O)C(C)(C)NC(=O)[C@@H](N)Cc1ccc(O)cc1)[C@@H](C)O)[C@@H](C)O)C(=O)N[C@@H](C)C(=O)N[C@@H](CC(C)C)C(=O)N[C@@H](CC(=O)O)C(=O)N[C@@H](CCCCN)C(=O)N[C@@H](CCCCNC(=O)COCCOCCNC(=O)COCCOCCNC(=O)CC[C@H](NC(=O)CCCCCCCCCCCCCCCCC(=O)O)C(=O)O)C(=O)N[C@@H](C)C(=O)N[C@@H](CCC(N)=O)C(=O)N[C@@H](CCCNC(=N)N)C(=O)N[C@@H](C)C(=O)N[C@@H](Cc1ccccc1)C(=O)N[C@H](C(=O)N[C@@H](CC(N)=O)C(=O)N[C@@H](Cc1c[nH]c2ccccc12)C(=O)N[C@@H](CC(C)C)C(=O)N[C@H](C(=O)N[C@@H](C)C(=O)NC(C)(C)C(=O)N[C@@H](CCCCN)C(N)=O)C(C)C)C(C)C [Compound 21] | 10 | 10 |  |  |  | 
4 | CC[C@H](C)[C@H](NC(=O)[C@H](CO)NC(=O)[C@H](Cc1ccc(O)cc1)NC(=O)[C@H](CC(=O)O)NC(=O)[C@H](CO)NC(=O)[C@@H](NC(=O)[C@H](Cc1ccccc1)NC(=O)[C@@H](NC(=O)CNC(=O)[C@H](CCC(=O)O)NC(=O)C(C)(C)NC(=O)[C@@H](N)Cc1ccc(O)cc1)[C@@H](C)O)[C@@H](C)O)C(=O)N[C@@H](C)C(=O)N[C@@H](CC(C)C)C(=O)N[C@@H](CC(=O)O)C(=O)N[C@@H](CCCCN)C(=O)N[C@@H](CCCCNC(=O)COCCOCCNC(=O)COCCOCCNC(=O)CC[C@H](NC(=O)CCCCCCCCCCCCCCCCC(=O)O)C(=O)O)C(=O)N[C@@H](C)C(=O)N[C@@H](CCC(N)=O)C(=O)N[C@@H](CCCNC(=N)N)C(=O)N[C@@H](C)C(=O)N[C@@H](Cc1ccccc1)C(=O)N[C@H](C(=O)N[C@@H](CCC(=O)O)C(=O)N[C@@H](Cc1c[nH]c2ccccc12)C(=O)N[C@@H](CC(C)C)C(=O)N[C@H](C(=O)N[C@@H](C)C(=O)NC(C)(C)C(=O)N[C@@H](CCCCN)C(N)=O)C(C)C)C(C)C [Compound 21] (H-Y[Aib]EGTFTSDYSIALDKK([AEEA-AEEA-γGlu-C18 diacid])AQRAFVEWLVA[Aib]K-NH2) |  |  | 6.8 | 7 | 11 | 
5 | CC[C@H](C)[C@H](NC(=O)[C@H](CO)NC(=O)[C@H](Cc1ccc(O)cc1)NC(=O)[C@H](CC(=O)O)NC(=O)[C@H](CO)NC(=O)[C@@H](NC(=O)[C@H](Cc1ccccc1)NC(=O)[C@@H](NC(=O)CNC(=O)[C@H](CCC(=O)O)NC(=O)C(C)(C)NC(=O)[C@@H](N)Cc1ccc(O)cc1)[C@@H](C)O)[C@@H](C)O)C(=O)N[C@@H](C)C(=O)N[C@@H](CC(C)C)C(=O)N[C@@H](CCC(=O)O)C(=O)N[C@@H](CCCCN)C(=O)N[C@@H](CCCCNC(=O)COCCOCCNC(=O)COCCOCCNC(=O)CC[C@H](NC(=O)CCCCCCCCCCCCCCCCC(=O)O)C(=O)O)C(=O)N[C@@H](C)C(=O)N[C@@H](CCC(N)=O)C(=O)N[C@@H](CCCNC(=N)N)C(=O)N[C@@H](C)C(=O)N[C@@H](Cc1ccccc1)C(=O)N[C@H](C(=O)N[C@@H](CCC(=O)O)C(=O)N[C@@H](Cc1c[nH]c2ccccc12)C(=O)N[C@@H](CC(C)C)C(=O)N[C@@H](CCC(=O)O)C(=O)N[C@@H](C)C(=O)N[C@@H](CCC(N)=O)C(=O)NCC(=O)N1CCC[C@H]1C(=O)N[C@@H](CO)C(=O)N[C@@H](CO)C(=O)NCC(=O)N[C@@H](C)C(=O)N1CCC[C@H]1C(=O)N1CCC[C@H]1C(=O)N1CCC[C@H]1C(=O)N[C@@H](CO)C(N)=O)C(C)C [Compound 22] (H-Y[Aib]EGTFTSDYSIALEKK([AEEA-AEEA-γGlu-C18 diacid])AQRAFVEWLEAQGPSSGAPPPS-NH2) |  |  | 60 | 60 | 61 | EC50 (human GLP-1 R; Table 3, most comprehensive data, read-out: hGLP-1-R cAMP EC50 average value): 61 pM
6 | CC[C@H](C)[C@H](NC(=O)[C@H](CO)NC(=O)[C@H](Cc1ccc(O)cc1)NC(=O)[C@H](CC(=O)O)NC(=O)[C@H](CO)NC(=O)[C@@H](NC(=O)[C@H](Cc1ccccc1)NC(=O)[C@@H](NC(=O)CNC(=O)[C@H](CCC(=O)O)NC(=O)C(C)(C)NC(=O)[C@@H](N)Cc1ccc(O)cc1)[C@@H](C)O)[C@@H](C)O)C(=O)N[C@@H](C)C(=O)N[C@@H](CC(C)C)C(=O)N[C@@H](CCC(=O)O)C(=O)N[C@@H](CCCCN)C(=O)N[C@@H](CCCCNC(=O)COCCOCCNC(=O)COCCOCCNC(=O)CC[C@H](NC(=O)CCCCCCCCCCCCCCCCC(=O)O)C(=O)O)C(=O)N[C@@H](C)C(=O)N[C@@H](CCC(N)=O)C(=O)N[C@@H](CCCNC(=N)N)C(=O)N[C@@H](C)C(=O)N[C@@H](Cc1ccccc1)C(=O)N[C@H](C(=O)N[C@@H](CCC(=O)O)C(=O)N[C@@H](Cc1c[nH]c2ccccc12)C(=O)N[C@@H](CC(C)C)C(=O)N[C@@H](CCC(=O)O)C(=O)N[C@@H](C)C(=O)N[C@@H](CCC(N)=O)C(=O)N[C@@H](CCCCN)C(N)=O)C(C)C [Compound 23] (H-Y[Aib]EGTFTSDYSIALEKK([AEEA-AEEA-γGlu-C18 diacid])AQRAFVEWLEAQK-NH2) |  |  | 200 | 200 | 44 | 
